{
  "source": "the supplement of paper PMC10307832",
  "experiment_in_all_cases": "relative viability (nuclei count vs DMSO), 5 days (fraction); higher = more cells survive",
  "key": {"Tanzisertib + Navitoclax": {"compound": "O[C@H]1CC[C@H](Nc2ncc3nc(Nc4c(F)cc(F)cc4F)n([C@H]4CCOC4)c3n2)CC1 [Tanzisertib] + CC1(C)CCC(c2ccc(Cl)cc2)=C(CN2CCN(c3ccc(C(=O)NS(=O)(=O)c4ccc(N[C@H](CCN5CCOCC5)CSc5ccccc5)c(S(=O)(=O)C(F)(F)F)c4)cc3)CC2)C1 [Navitoclax] (partner 0.5 µM)", "outline": "(§1)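 Lung cancer cell lines were pin-tool dosed in 1536-well plates on the day after seeding, with either a lone drug or a fixed anchor-drug dose plus five library-drug doses (not always all listed) in √10 steps. Nuclei were counted on 4× images after 5 days. Relative viability is the ratio of treated-well to vehicle-well nuclei counts, with each value a median of duplicate plates.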"}, "[1]": {"compound": "C[C@@H](N)c1ccc(C(=O)Nc2ccnc3[nH]ccc23)cc1 + CC(=O)c1c(C)c2cnc(Nc3ccc(N4CCNCC4)cn3)nc2n(C2CCCC2)c1=O [Palbociclib] (partner 0.5 µM)", "outline": "as §1"}, "[2]": {"compound": "C1CNCCC1C2=CC(=NN2)C3=CC=NC=C3 + O=C(c1cc(Cc2n[nH]c(=O)c3ccccc23)ccc1F)N1CCN(C(=O)C2CC2)CC1 [Olaparib] (partner 8 µM)", "outline": "as §1"}, "[3]": {"compound": "C1CNCCC1C2=CC(=NN2)C3=CC=NC=C3 + Cc1cc(Nc2cc(N3CCN(C)CC3)nc(Sc3ccc(NC(=O)C4CC4)cc3)n2)n[nH]1 [Tozasertib] (partner 0.1 µM)", "outline": "as §1"}},
  "data": [
    {"cell line": "UMC-11", "values": [
      {"measurement": "relative viability", "setting": "Tanzisertib + Navitoclax; first compound 0.08 µM", "result": 0.33},
      {"measurement": "relative viability", "setting": "Tanzisertib + Navitoclax; first compound 0.253 µM", "result": 0.319},
      {"measurement": "relative viability", "setting": "Tanzisertib + Navitoclax; first compound 0.8 µM", "result": 0.362},
      {"measurement": "relative viability", "setting": "Tanzisertib + Navitoclax; first compound 2.53 µM", "result": 0.342},
      {"measurement": "relative viability", "setting": "Tanzisertib + Navitoclax; first compound 8 µM", "result": 0.392},
      {"measurement": "relative viability", "setting": "[1]; first compound 0.1265 µM", "result": 0.334},
      {"measurement": "relative viability", "setting": "[1]; first compound 0.4 µM", "result": 0.306},
      {"measurement": "relative viability", "setting": "[1]; first compound 1.265 µM", "result": 0.29},
      {"measurement": "relative viability", "setting": "[1]; first compound 4 µM", "result": 0.318},
      {"measurement": "relative viability", "setting": "[2]; first compound 0.08 µM", "result": 0.403},
      {"measurement": "relative viability", "setting": "[2]; first compound 0.8 µM", "result": 0.379},
      {"measurement": "relative viability", "setting": "[2]; first compound 2.53 µM", "result": 0.436},
      {"measurement": "relative viability", "setting": "[2]; first compound 8 µM", "result": 0.365},
      {"measurement": "relative viability", "setting": "[3]; first compound 0.08 µM", "result": 0.196},
      {"measurement": "relative viability", "setting": "[3]; first compound 0.8 µM", "result": 0.214},
      {"measurement": "relative viability", "setting": "[3]; first compound 2.53 µM", "result": 0.205},
      {"measurement": "relative viability", "setting": "[3]; first compound 8 µM", "result": 0.207}
    ]}
  ]
}
